Values quoted from earlier work in patent US5855881A, “Mammalian alcohol dehydrogenase and aldehyde dehydrogenase production in plants” (priority 1996, dated 1999).

What was measured:
[1] = molecular target: T1, human cytosolic ALDH1 (aldehyde dehydrogenase) (Homo sapiens, UniProt P00352); conditions: read-out: Km toward acetaldehyde
T1 construct: at least five ALDHs that have been purified and characterized from human liver or stomach; host or cells: purified from human liver or stomach (Yin et al. 1993)
T1 sequence (P00352 1-501): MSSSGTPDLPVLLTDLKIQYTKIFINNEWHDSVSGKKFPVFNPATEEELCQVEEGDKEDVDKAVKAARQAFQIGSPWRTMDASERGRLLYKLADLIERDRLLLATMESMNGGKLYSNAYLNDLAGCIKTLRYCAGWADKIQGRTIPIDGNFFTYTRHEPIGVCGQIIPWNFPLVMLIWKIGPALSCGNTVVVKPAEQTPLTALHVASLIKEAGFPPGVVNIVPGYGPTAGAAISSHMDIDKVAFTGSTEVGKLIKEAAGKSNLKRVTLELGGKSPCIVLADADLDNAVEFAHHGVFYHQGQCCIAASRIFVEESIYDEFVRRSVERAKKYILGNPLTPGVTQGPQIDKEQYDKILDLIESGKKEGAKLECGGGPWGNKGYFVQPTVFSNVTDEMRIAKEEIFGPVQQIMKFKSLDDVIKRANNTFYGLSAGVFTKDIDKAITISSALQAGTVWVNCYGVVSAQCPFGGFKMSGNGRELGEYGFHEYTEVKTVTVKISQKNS

[2] = molecular target: T2, human mitochondrial ALDH2 (aldehyde dehydrogenase) (Homo sapiens, UniProt P05091); conditions: read-out: Km toward acetaldehyde
T2 construct: at least five ALDHs that have been purified and characterized from human liver or stomach; host or cells: purified from human liver or stomach (Yin et al. 1993)
T2 sequence (P05091 18-517): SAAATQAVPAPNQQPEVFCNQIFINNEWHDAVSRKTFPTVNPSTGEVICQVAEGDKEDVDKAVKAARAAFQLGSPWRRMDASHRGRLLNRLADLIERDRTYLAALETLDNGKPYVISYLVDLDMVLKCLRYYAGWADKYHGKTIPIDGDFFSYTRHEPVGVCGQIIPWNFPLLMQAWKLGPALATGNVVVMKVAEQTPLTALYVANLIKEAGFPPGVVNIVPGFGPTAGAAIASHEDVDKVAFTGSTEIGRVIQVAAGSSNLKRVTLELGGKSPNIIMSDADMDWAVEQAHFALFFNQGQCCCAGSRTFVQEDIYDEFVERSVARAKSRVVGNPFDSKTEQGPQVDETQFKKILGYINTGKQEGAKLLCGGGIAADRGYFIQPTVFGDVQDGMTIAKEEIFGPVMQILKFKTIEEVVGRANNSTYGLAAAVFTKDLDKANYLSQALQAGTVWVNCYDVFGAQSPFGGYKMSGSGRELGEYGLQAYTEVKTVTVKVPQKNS

[3] = molecular target: T3, human γ-aminobutyraldehyde dehydrogenase (GABALDH) (Homo sapiens, UniProt P49189); conditions: read-out: Km toward acetaldehyde
T3 construct: γ-aminobutyraldehyde dehydrogenase has been purified from liver; host or cells: purified from human liver (Yin et al. 1993)

[4] = molecular target: T4, human ALDH3 (aldehyde dehydrogenase) (Homo sapiens, UniProt P30838); conditions: read-out: Km toward acetaldehyde
T4 construct: at least five ALDHs that have been purified and characterized from human liver or stomach; host or cells: purified from human liver or stomach (Yin et al. 1993)
T4 sequence (P30838 1-453): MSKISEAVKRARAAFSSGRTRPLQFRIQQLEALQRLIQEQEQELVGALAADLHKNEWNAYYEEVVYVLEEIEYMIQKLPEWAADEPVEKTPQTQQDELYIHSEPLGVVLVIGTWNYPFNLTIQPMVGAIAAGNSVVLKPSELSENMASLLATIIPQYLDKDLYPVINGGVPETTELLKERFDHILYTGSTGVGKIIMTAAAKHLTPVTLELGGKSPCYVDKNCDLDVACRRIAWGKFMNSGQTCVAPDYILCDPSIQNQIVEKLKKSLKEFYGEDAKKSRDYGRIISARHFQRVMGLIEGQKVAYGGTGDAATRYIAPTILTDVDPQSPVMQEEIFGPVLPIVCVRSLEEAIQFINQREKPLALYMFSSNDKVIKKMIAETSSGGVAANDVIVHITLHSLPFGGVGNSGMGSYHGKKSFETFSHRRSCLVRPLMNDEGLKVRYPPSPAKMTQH

[5] = molecular target: T5, human ALDH4 (glutamic γ semialdehyde dehydrogenase, GSDH) (Homo sapiens, UniProt P30038); conditions: read-out: Km toward acetaldehyde
T5 construct: at least five ALDHs that have been purified and characterized from human liver or stomach; host or cells: purified from human liver or stomach (Yin et al. 1993)
T5 sequence (P30038 25-563): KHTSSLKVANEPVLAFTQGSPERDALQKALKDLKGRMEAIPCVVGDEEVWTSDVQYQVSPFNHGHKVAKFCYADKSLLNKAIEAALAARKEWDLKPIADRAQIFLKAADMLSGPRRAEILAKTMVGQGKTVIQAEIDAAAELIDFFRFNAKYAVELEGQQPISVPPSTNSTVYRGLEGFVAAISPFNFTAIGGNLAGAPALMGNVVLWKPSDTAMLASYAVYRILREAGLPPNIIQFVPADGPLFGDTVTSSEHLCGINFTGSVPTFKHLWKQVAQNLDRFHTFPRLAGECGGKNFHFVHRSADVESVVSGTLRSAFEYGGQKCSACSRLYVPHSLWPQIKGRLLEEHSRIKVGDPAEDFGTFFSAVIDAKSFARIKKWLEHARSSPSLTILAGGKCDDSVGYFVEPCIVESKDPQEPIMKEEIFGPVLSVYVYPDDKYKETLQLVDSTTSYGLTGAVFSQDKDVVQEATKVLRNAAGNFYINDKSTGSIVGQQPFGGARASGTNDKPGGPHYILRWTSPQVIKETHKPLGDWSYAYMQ

[6] = molecular target: human class IV σ-ADH (stomach alcohol dehydrogenase) (Homo sapiens, UniProt P40394)
Sequence of human class IV σ-ADH (stomach alcohol dehydrogenase) (P40394 14-386 limits assumed): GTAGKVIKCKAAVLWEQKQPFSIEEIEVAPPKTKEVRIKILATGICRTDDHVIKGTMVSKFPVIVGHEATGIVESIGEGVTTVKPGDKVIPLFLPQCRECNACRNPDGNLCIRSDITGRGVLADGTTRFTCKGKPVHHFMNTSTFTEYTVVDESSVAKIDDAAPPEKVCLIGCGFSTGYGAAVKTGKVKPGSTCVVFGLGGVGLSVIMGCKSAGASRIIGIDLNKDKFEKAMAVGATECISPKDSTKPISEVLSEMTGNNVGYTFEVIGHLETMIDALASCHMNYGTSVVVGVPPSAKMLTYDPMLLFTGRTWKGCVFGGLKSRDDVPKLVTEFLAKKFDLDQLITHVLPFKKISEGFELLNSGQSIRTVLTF

T3 sequence (P49189 whole entry): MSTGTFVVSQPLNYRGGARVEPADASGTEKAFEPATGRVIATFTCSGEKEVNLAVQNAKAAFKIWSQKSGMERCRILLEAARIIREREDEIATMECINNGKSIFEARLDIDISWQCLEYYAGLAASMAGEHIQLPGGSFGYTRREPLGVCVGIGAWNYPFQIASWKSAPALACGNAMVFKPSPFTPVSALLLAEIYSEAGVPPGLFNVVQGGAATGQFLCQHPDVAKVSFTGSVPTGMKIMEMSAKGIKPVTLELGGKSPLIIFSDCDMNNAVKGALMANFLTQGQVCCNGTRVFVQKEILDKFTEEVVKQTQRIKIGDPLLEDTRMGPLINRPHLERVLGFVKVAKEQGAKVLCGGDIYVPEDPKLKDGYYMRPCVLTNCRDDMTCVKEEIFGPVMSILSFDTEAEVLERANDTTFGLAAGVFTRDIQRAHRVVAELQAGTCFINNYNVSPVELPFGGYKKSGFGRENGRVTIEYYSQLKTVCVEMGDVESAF

| Compound | Km [1] | Km [2] | Km [3] | Km [4] | Km [5] | kcat for ethanol oxidation ([6]; enzyme isolated from human stomach tissue) | kcat value for ethanol ([6]; pH 7.5) | Km ([6]; read-out: Km for ethanol, enzyme isolated from human stomach tissue) |
| --- | --- | --- | --- | --- | --- | --- | --- | --- |
| CC=O [acetaldehyde] | 30 µM | 3 µM | 50 µM | 83000 µM | 5000 µM |  |  |  |
| CCO [ethanol] |  |  |  |  |  | 16.67 to 25 s⁻¹ | about 1000 | ~41000 µM |
